Assay results reported in ChEMBL document CHEMBL1201862, “PubChem BioAssay data set” (2004).
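Results reflect a 48-hour exposure of cells in 96-well plates to compound at five concentrations. GI50: concentration for 50% inhibition of growth.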 The source made the active and inactive calls. Rule as the data show it: active = GI50 up to about 1.1 µM and inactive = higher.

What was measured:
Experiment in all cases: growth of human tumour cells (NCI), 48 h
COLO 205 = tested on: COLO 205
A549 = tested on: A549
SK-MEL-28 = tested on: SK-MEL-28
A498 = tested on: A498
M14 = tested on: M14
UO-31 = tested on: UO-31
DLD-1 = tested on: DLD-1
SN12C = tested on: SN12C
MOLT-4 = tested on: MOLT-4
CCRF-CEM = tested on: CCRF-CEM
KM12 = tested on: KM12
NCI-H226 = tested on: NCI-H226
LXFL 529 = tested on: LXFL 529
K562 = tested on: K562
SK-OV-3 = tested on: SK-OV-3
M19-MEL = tested on: M19-MEL
HCT-15 = tested on: HCT-15
SK-MEL-5 = tested on: SK-MEL-5
XF498 = tested on: XF498
SW-620 = tested on: SW-620
NCI-H23 = tested on: NCI-H23
SF-539 = tested on: SF-539
DMS-273 = tested on: DMS-273
OVCAR-8 = tested on: OVCAR-8
SF-268 = tested on: SF-268
U-251 = tested on: U-251
IGROV-1 = tested on: IGROV-1
HCT-116 = tested on: HCT-116
CAKI-1 = tested on: CAKI-1
Malme-3M = tested on: Malme-3M
OVCAR-5 = tested on: OVCAR-5
786-0 = tested on: 786-0
SNB-19 = tested on: SNB-19
OVCAR-3 = tested on: OVCAR-3
HOP-18 = tested on: HOP-18
UACC-62 = tested on: UACC-62
DMS-114 = tested on: DMS-114
EKVX = tested on: EKVX
KM-20L2 = tested on: KM-20L2
OVCAR-4 = tested on: OVCAR-4
SF-295 = tested on: SF-295
NCI-H522 = tested on: NCI-H522
HOP-92 = tested on: HOP-92
HT-29 = tested on: HT-29
NCI-H460 = tested on: NCI-H460
UACC-257 = tested on: UACC-257
RPMI-8226 = tested on: RPMI-8226
TK-10 = tested on: TK-10
ACHN = tested on: ACHN
SR = tested on: SR
HOP-62 = tested on: HOP-62
SNB-75 = tested on: SNB-75
SK-MEL-2 = tested on: SK-MEL-2
HL-60 = tested on: HL-60
SNB-78 = tested on: SNB-78
PC-3 = tested on: PC-3
T47D = tested on: T47D
MDA-MB-435 = tested on: MDA-MB-435
NCI/ADR-RES = tested on: NCI/ADR-RES
Hs-578T = tested on: Hs-578T
BT-549 = tested on: BT-549
MDA-N = tested on: MDA-N
MDA-MB-231 = tested on: MDA-MB-231
MCF7 = tested on: MCF7
DU-145 = tested on: DU-145
RXF 393 = tested on: RXF 393
LOX IMVI = tested on: LOX IMVI

Oc1ccc(-c2n[nH]c(S)n2)cc1
GI50 (COLO 205): > 100 µM (inactive)
GI50 (A549): > 100 µM (inactive)
GI50 (SK-MEL-28): > 100 µM (inactive)
GI50 (A498): > 100 µM (inactive)
GI50 (M14): > 100 µM (inactive)
GI50 (UO-31): > 100 µM (inactive)
GI50 (DLD-1): > 100 µM (inactive)
GI50 (SN12C): > 100 µM (inactive)
GI50 (MOLT-4): > 100 µM (inactive)
GI50 (CCRF-CEM): > 100 µM (inactive)
GI50 (KM12): > 100 µM (inactive)
GI50 (NCI-H226): > 100 µM (inactive)
GI50 (LXFL 529): > 100 µM (inactive)
GI50 (K562): > 100 µM (inactive)
GI50 (SK-OV-3): > 100 µM (inactive)
GI50 (M19-MEL): > 100 µM (inactive)
GI50 (HCT-15): > 100 µM
GI50 (SK-MEL-5): > 100 µM (inactive)
GI50 (XF498): > 100 µM (inactive)
GI50 (SW-620): > 100 µM (inactive)
GI50 (NCI-H23): > 100 µM (inactive)
GI50 (SF-539): > 100 µM (inactive)
GI50 (DMS-273): > 100 µM (inactive)
GI50 (OVCAR-8): > 100 µM (inactive)
GI50 (SF-268): > 100 µM (inactive)
GI50 (U-251): > 100 µM (inactive)
GI50 (IGROV-1): > 100 µM (inactive)
GI50 (HCT-116): > 100 µM (inactive)
GI50 (CAKI-1): > 100 µM (inactive)
GI50 (Malme-3M): > 100 µM (inactive)
GI50 (OVCAR-5): > 100 µM (inactive)
GI50 (786-0): > 100 µM (inactive)
GI50 (SNB-19): > 100 µM (inactive)
GI50 (OVCAR-3): > 100 µM (inactive)
GI50 (HOP-18): > 100 µM (inactive)
GI50 (UACC-62): > 100 µM (inactive)
GI50 (DMS-114): > 100 µM (inactive)
GI50 (EKVX): > 100 µM (inactive)
GI50 (KM-20L2): > 100 µM (inactive)
GI50 (OVCAR-4): > 100 µM (inactive)
GI50 (SF-295): > 100 µM (inactive)
GI50 (NCI-H522): > 100 µM (inactive)
GI50 (HOP-92): > 100 µM (inactive)
GI50 (HT-29): > 100 µM (inactive)
GI50 (NCI-H460): > 100 µM (inactive)
GI50 (UACC-257): > 100 µM (inactive)
GI50 (RPMI-8226): > 100 µM (inactive)
GI50 (TK-10): > 100 µM (inactive)
GI50 (ACHN): > 100 µM (inactive)
GI50 (SR): > 100 µM (inactive)
GI50 (HOP-62): > 100 µM (inactive)
GI50 (SNB-75): 87.5 µM (inactive)
GI50 (SK-MEL-2): > 100 µM (inactive)
GI50 (HL-60): > 100 µM (inactive)
GI50 (SNB-78): > 100 µM (inactive)

COC(=O)C1c2cc3c(c(O)c2C(O)CC1(C)O)C(=O)c1c(O)cc2c(c1C3=O)OC1OC2(C)C(O)C(N(C)C)C1O (centres undefined)
GI50 (PC-3): 1.2 µM (inactive)
GI50 (T47D): 1.71 µM (inactive)
GI50 (MDA-MB-435): 1.75 µM (inactive)
GI50 (NCI/ADR-RES): 1.64 µM (inactive)
GI50 (DLD-1): > 100 µM (inactive)
GI50 (MOLT-4): 6.08 µM (inactive)
GI50 (Hs-578T): 1.43 µM (inactive)
GI50 (CCRF-CEM): 6.37 µM (inactive)
GI50 (LXFL 529): > 100 µM (inactive)
GI50 (K562): 11.3 µM (inactive)
GI50 (M19-MEL): > 100 µM (inactive)
GI50 (HCT-15): 11.3 µM
GI50 (XF498): > 100 µM (inactive)
GI50 (BT-549): 4.9 µM (inactive)
GI50 (DMS-273): > 100 µM (inactive)
GI50 (OVCAR-8): 11.7 µM (inactive)
GI50 (CAKI-1): 3.28 µM (inactive)
GI50 (SNB-19): 7.06 µM (inactive)
GI50 (OVCAR-3): 12.7 µM (inactive)
GI50 (MDA-N): 1.57 µM (inactive)
GI50 (HOP-18): > 100 µM (inactive)
GI50 (MDA-MB-231): 1.31 µM (inactive)
GI50 (DMS-114): > 100 µM (inactive)
GI50 (KM-20L2): > 100 µM (inactive)
GI50 (OVCAR-4): 12.9 µM (inactive)
GI50 (MCF7): 1.35 µM (inactive)
GI50 (SF-295): 12.4 µM (inactive)
GI50 (HOP-92): 26.8 µM (inactive)
GI50 (NCI-H460): > 100 µM (inactive)
GI50 (RPMI-8226): 10.9 µM (inactive)
GI50 (SR): 8.49 µM (inactive)
GI50 (HOP-62): 12.7 µM (inactive)
GI50 (DU-145): 1.7 µM (inactive)
GI50 (SK-MEL-2): > 100 µM (inactive)
GI50 (RXF 393): 12.4 µM (inactive)
GI50 (HL-60): 12.6 µM (inactive)
GI50 (SNB-78): > 100 µM (inactive)

COC(=O)C1CCC(=O)C(Sc2ccccc2)C1 (centres undefined)
GI50 (COLO 205): > 100 µM (inactive)
GI50 (A549): > 100 µM (inactive)
GI50 (SK-MEL-28): > 100 µM (inactive)
GI50 (A498): > 100 µM (inactive)
GI50 (M14): > 100 µM (inactive)
GI50 (UO-31): 21.2 µM (inactive)
GI50 (DLD-1): > 100 µM (inactive)
GI50 (SN12C): > 100 µM (inactive)
GI50 (MOLT-4): 27.6 µM (inactive)
GI50 (CCRF-CEM): 22.5 µM (inactive)
GI50 (KM12): > 100 µM (inactive)
GI50 (NCI-H226): > 100 µM (inactive)
GI50 (LXFL 529): > 100 µM (inactive)
GI50 (K562): 63.1 µM (inactive)
GI50 (SK-OV-3): > 100 µM (inactive)
GI50 (M19-MEL): 62.1 µM (inactive)
GI50 (HCT-15): > 100 µM
GI50 (SK-MEL-5): > 100 µM (inactive)
GI50 (XF498): > 100 µM (inactive)
GI50 (SW-620): > 100 µM (inactive)
GI50 (NCI-H23): > 100 µM (inactive)
GI50 (LOX IMVI): > 100 µM (inactive)
GI50 (SF-539): > 100 µM (inactive)
GI50 (DMS-273): > 100 µM (inactive)
GI50 (OVCAR-8): > 100 µM (inactive)
GI50 (SF-268): 59.8 µM (inactive)
GI50 (U-251): > 100 µM (inactive)
GI50 (IGROV-1): 51.6 µM (inactive)
GI50 (HCT-116): > 100 µM (inactive)
GI50 (CAKI-1): > 100 µM (inactive)
GI50 (OVCAR-5): > 100 µM (inactive)
GI50 (SNB-19): > 100 µM (inactive)
GI50 (OVCAR-3): > 100 µM (inactive)
GI50 (HOP-18): > 100 µM (inactive)
GI50 (UACC-62): 80.7 µM (inactive)
GI50 (DMS-114): 68.1 µM (inactive)
GI50 (EKVX): > 100 µM (inactive)
GI50 (KM-20L2): > 100 µM (inactive)
GI50 (OVCAR-4): > 100 µM (inactive)
GI50 (SF-295): > 100 µM (inactive)
GI50 (NCI-H522): 52.7 µM (inactive)
GI50 (HOP-92): 50.1 µM (inactive)
GI50 (HT-29): > 100 µM (inactive)
GI50 (NCI-H460): > 100 µM (inactive)
GI50 (UACC-257): 83.8 µM (inactive)
GI50 (RPMI-8226): 44.3 µM (inactive)
GI50 (TK-10): > 100 µM (inactive)
GI50 (ACHN): > 100 µM (inactive)
GI50 (SNB-75): 24.4 µM (inactive)
GI50 (RXF 393): > 100 µM (inactive)
GI50 (HL-60): 34 µM (inactive)
GI50 (SNB-78): > 100 µM (inactive)
